Results on one compound are retold here after patent US4946849A, “Method for the treatment of malaria” (Flow Incorporated, priority 1989, dated 1990).

The test system of data set [1] is P. falciparum ATCC 50005 (chloroquine resistant). The experiment in a line: Growth inhibition of chloroquine-resistant P. falciparum in culture (96-well plates, microscopy and flow cytometry). It is filed as cell-based. The following applies: chloroquine-resistant strain. As to the method: Numerous experiments were conducted regarding dequalinium compounds and their ability to control the growth of chloroquine-resistant and sensitive strains of P. falciparum malaria parasites. Specifically, two commonly-known strains of P. falciparum were obtained from the American Type Culture Collection (ATCC), namely, ATCC 50005 (chloroquine resistant) and ATCC 50028 (chloroquine sensitive). The methods of culture and culture materials used in the experiments described herein are known in the art and discussed in Trager W. and Jensen, J., "Human Malaria Parasites in Continuous Culture" Science, […] (1976).
Assays for growth inhibition of P. falciparium were performed using the above parasites in standard 96-well test plates. All assays were performed in duplicate. The tests involved the use of a dequalinium chloride salt solution (from the Sigma Company of St. Louis, Mo.--product no. D3768) at concentration levels of 32, 16, 8, 4, 2, 1, and 0 nanograms/ml.
The parasites were permitted to incubate in the test media for 72 hours. At 24 hour intervals, new media and test substances were added, and an aliquot of the incubation mixture was removed for microscopic examination,In addition, the parasites were examined by flow cytometry using the techniques discussed in Makler, M. T., et al., "Thiazone Orange: A New Dye for Plasmodium Species Analysis" Cytometry, 8:568-570 (1987).
The entire experiment was terminated after three days. The data in FIG. 1 clearly illustrates the effectiveness of dequalinium salts against chloroquine-resistant parasites. The "Y" axis in FIG. 1 involves the percentage of erythrocytes in the test media which were infected with viable parasites. The "X" axis involves the concentration of dequalinium chloride used (in nanograms/ml.) At 0 nanograms/ml, parasite growth was extensive, with a % parasite infection of about 17 % after 72 hours.
In general terms: A flow cytometer gives signals particle by particle.

For data set [2] the following is noted: s.c., mice; cited from earlier work.
A further data set relates to Rat Colon Tumor. The following applies: rats, subcutaneous, intraperitoneal, or implant-osmotic pump, cited from earlier work.

Counter-ions that a name gives are not always drawn.

One may read the LD50 as the dose expected to kill half of the subjects tested. Take `Cc1cc(N)c2ccccc2[n+]1CCCCCCCCCC[n+]1c(C)cc(N)c2ccccc21` [dequalinium chloride, 1,1'-(1,10-Decanediyl)bis-[4-amino-2-methylquinolinium] salt]: in data set [1] (Plasmodium falciparum, ATCC50005, read-out: concentration level at and above which parasite growth was strongly inhibited and no viable parasites remained, after 72 hours), the minimal effective concentration was at least 0.001 µg/mL. For the same compound, the parasite growth entry in data set [1] (1.0 nanogram/ml and above) was “strongly inhibited”. Further, the viable parasites remaining entry in data set [1] (1.0 nanogram/ml and above, after 72 hours) is recorded as “no viable parasites remained”. The LD50 in data set [2] is given as 70 mg/kg. Moreover, the tumor growth inhibition result in the data set with Rat Colon Tumor (1.0 mg/kg) is “significant tumor growth inhibition”. Further, the survival entry in the data set on Rat Colon Tumor (sublethal dose 1.0 mg/kg) is reported as “all survived”.
